Assay results reported in patent US8415469B2, “Compounds and methods for kinase modulation, and indications therefor” (Plexxikon Inc., priority 2005, dated 2013).

Legend:
Assay type in all cases: biochemical
B-Raf = target: T1, B-Raf (Homo sapiens, UniProt P15056); assay: AlphaScreen kinase assay, B-Raf; details: read-out: IC50, activity toward kinase B-Raf
T1 construct: purchased Upstate Biotechnology

B-Raf V600E = target: T2, B-Raf V600E (Homo sapiens, UniProt P15056, V600E); assay: AlphaScreen kinase assay, B-Raf V600E; details: read-out: IC50, activity toward kinase B-Raf V600E
T2 construct: P4254. pFastBacBD-CDC37 BRAF D437-K722-X, V600E; His6 with pFastBac HT leader (TEV site) (N); made in house; host or cells: Sf9 (baculovirus; chaperone CDC37 co-expressed)

c-Raf-1 = target: T3, c-Raf-1 (Homo sapiens, UniProt P04049); assay: AlphaScreen kinase assay, c-Raf-1; details: read-out: IC50, activity toward kinase c-Raf-1
T3 construct: purchased Upstate Biotechnology

FGFR1 = target: T4, FGFR1 (Homo sapiens, UniProt P11362, C488A/C584S); assay: AlphaScreen kinase assay, FGFR1; details: read-out: IC50, activity toward kinase FGFR
T4 construct: P1351.pET N6 BI-PTP FGFR A458-E765-X C488A, C584S; made in house; host or cells: E. coli (PTP1B co-expressed)

Fms = target: T5, Fms (Homo sapiens, UniProt P07333); assay: AlphaScreen kinase assay, Fms; details: read-out: IC50, activity toward kinase Fms
T5 construct: purchased Upstate Biotechnology

Kit = target: T6, Kit (Homo sapiens, UniProt P10721); assay: AlphaScreen kinase assay, Kit; details: read-out: IC50, activity toward kinase Kit
T6 construct: P1332.N6 BI PTP KIT M552-K948-X COD; His6 (N); made in house; host or cells: E. coli (PTP1B co-expressed)

Measured: IC50

T1 sequence (P15056 whole entry): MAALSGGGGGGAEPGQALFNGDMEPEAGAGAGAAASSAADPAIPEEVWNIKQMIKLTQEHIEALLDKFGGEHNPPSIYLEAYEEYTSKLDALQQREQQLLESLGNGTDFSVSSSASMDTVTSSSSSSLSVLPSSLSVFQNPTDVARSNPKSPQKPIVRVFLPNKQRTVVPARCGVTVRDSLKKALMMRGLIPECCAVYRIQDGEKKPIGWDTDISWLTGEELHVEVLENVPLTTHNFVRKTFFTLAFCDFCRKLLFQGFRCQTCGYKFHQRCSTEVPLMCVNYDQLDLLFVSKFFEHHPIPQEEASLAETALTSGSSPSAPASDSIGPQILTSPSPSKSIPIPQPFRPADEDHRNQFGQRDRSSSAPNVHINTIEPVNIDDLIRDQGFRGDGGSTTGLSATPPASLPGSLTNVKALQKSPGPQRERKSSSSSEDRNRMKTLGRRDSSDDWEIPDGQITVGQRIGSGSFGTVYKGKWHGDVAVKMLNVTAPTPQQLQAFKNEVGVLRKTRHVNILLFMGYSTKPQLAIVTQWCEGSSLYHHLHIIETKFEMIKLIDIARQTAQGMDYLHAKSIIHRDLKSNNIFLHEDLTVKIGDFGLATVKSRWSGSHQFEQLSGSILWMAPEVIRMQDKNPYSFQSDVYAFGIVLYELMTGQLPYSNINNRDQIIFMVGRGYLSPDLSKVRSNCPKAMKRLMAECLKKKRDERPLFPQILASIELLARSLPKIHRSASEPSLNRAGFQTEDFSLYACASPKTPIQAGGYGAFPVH
T3 sequence (P04049 whole entry): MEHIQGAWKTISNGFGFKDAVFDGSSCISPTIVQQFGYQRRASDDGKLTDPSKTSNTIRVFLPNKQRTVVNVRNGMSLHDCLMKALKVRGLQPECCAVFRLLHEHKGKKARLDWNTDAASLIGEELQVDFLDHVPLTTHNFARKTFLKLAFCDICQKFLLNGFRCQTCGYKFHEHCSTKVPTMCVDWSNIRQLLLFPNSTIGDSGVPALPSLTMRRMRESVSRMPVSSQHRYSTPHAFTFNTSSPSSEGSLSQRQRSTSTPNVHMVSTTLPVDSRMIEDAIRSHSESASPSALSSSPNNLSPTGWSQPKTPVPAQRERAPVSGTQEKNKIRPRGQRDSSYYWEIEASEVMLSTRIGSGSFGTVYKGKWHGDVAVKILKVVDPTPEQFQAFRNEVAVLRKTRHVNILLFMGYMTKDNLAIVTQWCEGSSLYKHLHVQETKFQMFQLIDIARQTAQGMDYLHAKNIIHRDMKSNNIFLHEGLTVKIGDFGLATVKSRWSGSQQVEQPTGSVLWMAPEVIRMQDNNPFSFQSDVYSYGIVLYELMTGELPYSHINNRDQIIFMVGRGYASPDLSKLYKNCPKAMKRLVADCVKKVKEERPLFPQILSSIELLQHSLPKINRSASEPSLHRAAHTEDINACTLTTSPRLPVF
T2 sequence (P15056 with tags, fused parts or gaps V600E): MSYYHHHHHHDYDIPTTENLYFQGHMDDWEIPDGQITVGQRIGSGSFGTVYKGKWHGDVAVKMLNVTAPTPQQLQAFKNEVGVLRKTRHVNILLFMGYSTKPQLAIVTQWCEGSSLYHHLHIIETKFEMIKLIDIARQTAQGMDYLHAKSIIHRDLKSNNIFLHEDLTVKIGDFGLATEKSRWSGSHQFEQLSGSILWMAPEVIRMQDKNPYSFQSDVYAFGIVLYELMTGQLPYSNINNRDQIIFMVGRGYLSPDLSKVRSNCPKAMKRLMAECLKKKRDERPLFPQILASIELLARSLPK
T6 sequence (P10721 with tags, fused parts or gaps): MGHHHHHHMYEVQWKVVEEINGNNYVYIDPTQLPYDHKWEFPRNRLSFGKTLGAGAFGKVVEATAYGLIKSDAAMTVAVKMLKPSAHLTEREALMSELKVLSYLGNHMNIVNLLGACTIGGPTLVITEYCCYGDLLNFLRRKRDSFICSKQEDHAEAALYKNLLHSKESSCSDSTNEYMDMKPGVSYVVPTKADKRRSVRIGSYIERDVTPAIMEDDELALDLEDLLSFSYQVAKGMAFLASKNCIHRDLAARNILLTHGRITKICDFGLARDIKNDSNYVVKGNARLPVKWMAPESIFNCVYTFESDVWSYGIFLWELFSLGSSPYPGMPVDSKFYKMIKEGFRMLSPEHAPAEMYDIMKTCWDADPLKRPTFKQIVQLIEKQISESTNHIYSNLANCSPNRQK
T5 sequence (P07333 20-972): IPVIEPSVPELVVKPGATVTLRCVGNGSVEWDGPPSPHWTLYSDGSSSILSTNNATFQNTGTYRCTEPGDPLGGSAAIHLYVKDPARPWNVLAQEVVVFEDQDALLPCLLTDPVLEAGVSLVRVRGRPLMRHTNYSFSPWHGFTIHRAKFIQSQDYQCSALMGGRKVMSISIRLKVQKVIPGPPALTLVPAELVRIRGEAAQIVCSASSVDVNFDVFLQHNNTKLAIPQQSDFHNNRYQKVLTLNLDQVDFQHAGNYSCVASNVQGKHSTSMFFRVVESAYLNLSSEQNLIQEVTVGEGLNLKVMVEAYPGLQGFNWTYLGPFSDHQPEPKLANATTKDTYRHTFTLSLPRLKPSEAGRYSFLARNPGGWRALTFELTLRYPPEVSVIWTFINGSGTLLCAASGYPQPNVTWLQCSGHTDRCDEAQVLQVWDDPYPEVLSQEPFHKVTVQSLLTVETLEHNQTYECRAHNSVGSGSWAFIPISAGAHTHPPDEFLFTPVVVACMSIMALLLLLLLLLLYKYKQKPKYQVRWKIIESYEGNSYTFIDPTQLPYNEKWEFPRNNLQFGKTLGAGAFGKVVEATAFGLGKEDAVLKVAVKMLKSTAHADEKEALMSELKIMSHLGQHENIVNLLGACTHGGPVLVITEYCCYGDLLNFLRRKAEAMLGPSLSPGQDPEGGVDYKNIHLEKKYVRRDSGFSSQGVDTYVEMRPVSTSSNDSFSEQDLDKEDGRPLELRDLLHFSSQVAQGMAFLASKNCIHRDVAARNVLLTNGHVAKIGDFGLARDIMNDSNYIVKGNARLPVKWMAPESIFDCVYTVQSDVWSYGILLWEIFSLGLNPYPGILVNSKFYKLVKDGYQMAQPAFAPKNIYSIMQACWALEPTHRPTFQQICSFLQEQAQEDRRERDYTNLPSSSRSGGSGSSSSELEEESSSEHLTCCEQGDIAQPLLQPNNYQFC
T4 sequence (P11362 458-765 C488A/C584S): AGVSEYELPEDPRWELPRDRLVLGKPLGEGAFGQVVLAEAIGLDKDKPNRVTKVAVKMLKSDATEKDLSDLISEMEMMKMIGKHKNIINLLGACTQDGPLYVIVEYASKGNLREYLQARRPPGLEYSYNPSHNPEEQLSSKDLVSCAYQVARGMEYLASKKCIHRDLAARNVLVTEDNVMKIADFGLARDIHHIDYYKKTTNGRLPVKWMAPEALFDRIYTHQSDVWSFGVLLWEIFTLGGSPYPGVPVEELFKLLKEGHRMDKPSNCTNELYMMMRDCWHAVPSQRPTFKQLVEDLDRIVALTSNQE

O=C(Nc1ccc(F)c(C(=O)c2c[nH]c3ncccc23)c1F)OCc1ccccc1 [Compound P-0894, [2,4-Difluoro-3-(1H-pyrrolo[2,3-b]pyridine-3-carbonyl)-phenyl]-carbamic acid benzyl ester]
≤ 10 µM: B-Raf | B-Raf V600E | c-Raf-1 | FGFR1

CCCS(=O)(=O)Nc1ccc(F)c(C(=O)c2c[nH]c3ncc(-c4ccc(N5CCN(C)CC5)nc4)cc23)c1F [Compound P-1882, Propane-1-sulfonic acid (2,4-difluoro-3-{5-[6-(4-methyl-piperazine-1-yl)-pyridin-3-yl]-1H-pyrrolo[2,3-b]pyridine-3-carbonyl}-phenyl)-amide]
not listed: FGFR1
≤ 10 µM: all other assays above

O=C(Nc1cccc(C(=O)c2c[nH]c3ncccc23)c1)Nc1cc(C(F)(F)F)ccc1Cl [Compound P-1712, 1-(2-Chloro-5-trifluoromethyl-phenyl)-3-[3-(1H-pyrrolo[2,3-b]pyridine-3-carbonyl)-phenyl]-urea]
not listed: FGFR1
≤ 10 µM: all other assays above

CCCS(=O)(=O)Nc1ccc(F)c(C(=O)c2c[nH]c3ncc(C(=O)NCC)cc23)c1F [Compound P-1630, 3-[2,6-difluoro-3-(propane-1-sulfonylamino)-benzoyl]-1H-pyrrolo[2,3-b]pyridine-5-carboxylic acid ethylamide]
not listed: FGFR1
≤ 10 µM: all other assays above

CCCS(=O)(=O)Nc1ccc(Cl)c(C(=O)c2c[nH]c3ncc(-c4ccccc4)cc23)c1F [Compound P-0776, Propane-1-sulfonic acid [4-chloro-2-fluoro-3-(5-phenyl-1H-pyrrolo[2,3-b]pyridine-3-carbonyl)-phenyl]-amide]
not listed: Fms
≤ 10 µM: all other assays above

O=C(Nc1cccc(C(=O)c2c[nH]c3ncccc23)c1)Nc1cccc(C(F)(F)F)c1F [Compound P-1714, 1-(2-Fluoro-3-trifluoromethyl-phenyl)-3-[3-(1H-pyrrolo[2,3-b]pyridine-3-carbonyl)-phenyl]-urea]
not listed: FGFR1
≤ 10 µM: all other assays above

COc1ccc(F)c(C(=O)c2c[nH]c3ncc(Br)cc23)c1F [Compound P-1386, (5-Bromo-1H-pyrrolo[2,3-b]pyridin-3-yl)-(2,6-difluoro-3-methoxy-phenyl)-methanone]
≤ 10 µM: all assays above

O=C(Nc1cccc(C(=O)c2c[nH]c3ncc(Cl)cc23)c1)Nc1cccc(C(F)(F)F)c1F [Compound P-1740, 1-[3-(5-Chloro-1H-pyrrolo[2 3-b]pyridine-3-carbonyl)-phenyl]-3-(2-fluoro-3-trifluoromethyl-phenyl)-urea]
not listed: FGFR1
≤ 10 µM: all other assays above

CCc1cnc2[nH]cc(C(=O)c3c(F)ccc(NS(=O)(=O)c4ccc(C(F)(F)F)cc4)c3F)c2c1 [Compound P-1783, N-[3-(5-Ethyl-1H-pyrrolo[2,3-b]pyridine-3-carbonyl)-2,4-difluoro-phenyl]-4-trifluoromethyl-benzenesulfonamide]
not listed: FGFR1
≤ 10 µM: all other assays above

COc1cc(Cc2c[nH]c3ncc(-c4ccsc4)cc23)cc(OC)c1 [Compound P-0613]
≤ 10 µM: all assays above

O=C(c1c(F)ccc(NS(=O)(=O)c2ccccc2)c1F)c1c[nH]c2ncc(Br)cc12 [Compound P-0798, N-[3-(5-Bromo-1H-pyrrolo[2,3-b]pyridine-3-carbonyl)-2,4-difluoro-phenyl]-benzenesulfonamide]
≤ 10 µM: all assays above

CC(=O)Nc1cccc(-c2cnc3[nH]cc(C(=O)c4cccc(C(F)(F)F)c4)c3c2)c1 [Compound P-1419, N-{3-[3-(3-Trifluoromethyl-benzoyl)-1H-pyrrolo[2,3-b]pyridin-5-yl]-phenyl}-acetamide]
≤ 10 µM: all assays above

COCCOc1cnc2[nH]cc(C(=O)c3c(F)ccc(NS(=O)(=O)c4cccc(F)c4)c3F)c2c1 [Compound P-1871, N-{2,4-Difluoro-3-[5-(2-methoxy-ethoxy)-1H-pyrrolo[2,3-b]pyridine-3-carbonyl]-phenyl}-3-fluoro-benzenesulfonamide]
not listed: FGFR1
≤ 10 µM: all other assays above

O=C(Nc1cccc(C(=O)c2c[nH]c3ncc(Cl)cc23)c1)Nc1cc(C(F)(F)F)ccc1Cl [Compound P-1738, 1-[3-(5-Chloro-1H-pyrrolo[2,3-b]pyridine-3-carbonyl)-phenyl]-3-(2-chloro-5-trifluoromethyl-phenyl)-urea]
≤ 10 µM: B-Raf | B-Raf V600E | c-Raf-1 | Fms

CCCS(=O)(=O)Nc1ccc(F)c(C(=O)c2c[nH]c3ncc(-c4ccc(N5CCOCC5)nc4)cc23)c1F [Compound P-1881, Propane-1-sulfonic acid {2,4-difluoro-3-[5-(6-morpholin-4-yl-pyridin-3-yl)-1H-pyrrolo[2,3-b]pyridine-3-carbonyl]-phenyl}-amide]
not listed: FGFR1
≤ 10 µM: all other assays above

O=C(Nc1cccc(C(=O)c2c[nH]c3ncc(Cl)cc23)c1)Nc1ccc(C(F)(F)F)cc1Cl [Compound P-1739, 1-[3-(5-Chloro-1H-pyrrolo[2,3-b]pyridine-3-carbonyl)-phenyl]-3-(2-chloro-4-trifluoromethyl-phenyl)-urea]
not listed: FGFR1
≤ 10 µM: all other assays above

CCCS(=O)(=O)Nc1ccc(Cl)c(C(=O)c2c[nH]c3ncc(Cl)cc23)c1F [Compound P-1004, Propane-1-sulfonic acid [4-chloro-3-(5-chloro-1H-pyrrolo[2,3-b]pyridine-3-carbonyl)-2-fluoro-phenyl]-amide]
≤ 10 µM: B-Raf | B-Raf V600E | c-Raf-1 | FGFR1

CCCCOc1ccc(S(=O)(=O)Nc2ccc(F)c(C(=O)c3c[nH]c4ncccc34)c2F)cc1 [Compound P-1006, 4-Butoxy-N-[2,4-difluoro-3-(1H-pyrrolo[2,3-b]pyridine-3-carbonyl)-phenyl]-benzenesulfonamide]
≤ 10 µM: B-Raf | B-Raf V600E | c-Raf-1

O=C(Nc1ccccc1)Nc1cccc(C(=O)c2c[nH]c3ncc(Cl)cc23)c1 [Compound P-1733, 1-[3-(5-Chloro-1H-pyrrolo[2,3-b]pyridine-3-carbonyl)-phenyl]-3-phenyl-urea]
not listed: FGFR1
≤ 10 µM: all other assays above
